Data as given in ChEMBL document CHEMBL2169877, “Antagonists of 5-HT₆ receptors. Substituted 3-(phenylsulfonyl)pyrazolo[1,5-a]pyrido[3,4-e]pyrimidines and 3-(phenylsulfonyl)pyrazolo[1,5-a]pyrido[4,3-d]pyrimidines-Synthesis and 'structure-activity' relationship” (Bioorg Med Chem Lett, 2012).
Calls of active or inactive are those of the source.

What was measured:
[1] = target: T1, 5-hydroxytryptamine receptor 6 (Homo sapiens, UniProt P50406); experiment: Antagonist activity at human recombinant 5HT6 receptor expressed in […] cells assessed as inhibition of serotonin-induced cAMP accumulation after 2 hrs; format: functional, cell-based, HEK293
[2] = target: T1, 5-hydroxytryptamine receptor 6; experiment: Displacement of [3H]lysergic acid diethylamide from human recombinant 5HT6 receptor expressed in HeLa cells after 120 mins; format: cell-based
[3] = target: Alpha-2A adrenergic receptor (Homo sapiens) (UniProt P08913); experiment: Binding affinity to alpha2A adrenergic receptor at 1 uM by radioligand displacement assay
[4] = target: D(2) dopamine receptor (Homo sapiens) (UniProt P14416); experiment: Binding affinity to dopamine D2S receptor at 1 uM by radioligand displacement assay
[5] = target: Cannabinoid receptor 2 (Homo sapiens) (UniProt P34972); experiment: Binding affinity to CB2 receptor at 1 uM by radioligand displacement assay
[6] = target: Cyclin-dependent kinase 2/cyclin A (Homo sapiens) (UniProt P24941+P20248+P78396); experiment: Binding affinity to CDK2/cyclin A at 1 uM by radioligand displacement assay; format: protein-complex assay
[7] = target: Cannabinoid receptor 1 (Homo sapiens) (UniProt P21554); experiment: Binding affinity to CB1 receptor at 1 uM by radioligand displacement assay
[8] = Binding affinity to GABA(A) receptor RO-15-1788 binding site at 1 uM by radioligand displacement assay
[9] = Binding affinity to Glutamate receptor at 1 uM by radioligand displacement assay
[10] = target: Beta-2 adrenergic receptor (Homo sapiens) (UniProt P07550); experiment: Binding affinity to beta2 adrenergic receptor at 1 uM by radioligand displacement assay
[11] = target: Glycogen synthase kinase-3 beta (Homo sapiens) (UniProt P49841); experiment: Binding affinity to GSK3beta at 1 uM by radioligand displacement assay
[12] = target: Cyclin-dependent kinase 5/CDK5 activator 1 (Homo sapiens) (UniProt Q00535+Q15078); experiment: Binding affinity to cdk5/p35 at 1 uM by radioligand displacement assay; format: protein-complex assay
[13] = Binding affinity to PDE3 at 1 uM by radioligand displacement assay
[14] = Binding affinity to GABA(A) receptor TBOB binding site at 1 uM by radioligand displacement assay
[15] = target: Amine oxidase [flavin-containing] A (Homo sapiens, UniProt P21397); experiment: Binding affinity to MAO-A at 1 uM by radioligand displacement assay
[16] = target: D(3) dopamine receptor (Homo sapiens) (UniProt P35462); experiment: Binding affinity to dopamine D3 receptor at 1 uM by radioligand displacement assay
[17] = target: Metabotropic glutamate receptor 5 (Homo sapiens) (UniProt P41594); experiment: Binding affinity to mGluR5 at 1 uM by radioligand displacement assay
[18] = Binding affinity to P2X receptor at 1 uM by radioligand displacement assay
[19] = Binding affinity to adenosine transporter at 1 uM by radioligand displacement assay
[20] = target: Corticotropin-releasing factor receptor 1 (Homo sapiens) (UniProt P34998); experiment: Binding affinity to CRF1R at 1 uM by radioligand displacement assay
[21] = target: Sodium-dependent dopamine transporter (Homo sapiens) (UniProt Q01959); experiment: Binding affinity to DAT at 1 uM by radioligand displacement assay
[22] = target: D(2) dopamine receptor (Homo sapiens) (UniProt P14416); experiment: Binding affinity to dopamine D2L receptor at 1 uM by radioligand displacement assay
[23] = target: T2, 5-hydroxytryptamine receptor 2B (Homo sapiens, UniProt P41595); experiment: Displacement of [3H]lysergic acid diethylamide from human recombinant 5HT2B receptor at 1 uM
[24] = Binding affinity to PDE5 at 1 uM by radioligand displacement assay
[25] = target: Alpha-2B adrenergic receptor (Homo sapiens) (UniProt P18089); experiment: Binding affinity to alpha2B adrenergic receptor at 1 uM by radioligand displacement assay
[26] = target: Adenosine receptor A3 (Homo sapiens) (UniProt P0DMS8); experiment: Binding affinity to adenosine A3 receptor at 1 uM by radioligand displacement assay
[27] = target: Cyclin-dependent kinase 1/cyclin B1 (Homo sapiens) (UniProt P06493+P14635); experiment: Binding affinity to CDK1/cyclin B at 1 uM by radioligand displacement assay; format: protein-complex assay
[28] = target: D(1A) dopamine receptor (Homo sapiens) (UniProt P21728); experiment: Binding affinity to dopamine D1 receptor at 1 uM by radioligand displacement assay
[29] = Binding affinity to PDE2 at 1 uM by radioligand displacement assay
[30] = Binding affinity to GABA transporter at 1 uM by radioligand displacement assay
[31] = target: Nitric oxide synthase 1 (Homo sapiens) (UniProt P29475); experiment: Binding affinity to nNOS at 1 uM by radioligand displacement assay
[32] = Binding affinity to N-type calcium channel at 1 uM by radioligand displacement assay
[33] = Binding affinity to L-type calcium channel phenylalkylamine binding site at 1 uM by radioligand displacement assay
[34] = Binding affinity to P2Y receptor at 1 uM by radioligand displacement assay
[35] = target: 5-hydroxytryptamine receptor 2C (Homo sapiens) (UniProt P28335); experiment: Binding affinity to 5HT2C receptor at 1 uM by radioligand displacement assay
[36] = target: Adenosine receptor A1 (Homo sapiens) (UniProt P30542); experiment: Binding affinity to adenosine A1 receptor at 1 uM by radioligand displacement assay
[37] = target: Beta-1 adrenergic receptor (Homo sapiens) (UniProt P08588); experiment: Binding affinity to beta1 adrenergic receptor at 1 uM by radioligand displacement assay
[38] = target: Adenosine receptor A2a (Homo sapiens) (UniProt P29274); experiment: Binding affinity to adenosine A2A receptor at 1 uM by radioligand displacement assay
[39] = Binding affinity to central-type GABA(A) receptor muscimol binding site at 1 uM by radioligand displacement assay
[40] = target: Alpha-1B adrenergic receptor (Homo sapiens) (UniProt P35368); experiment: Binding affinity to alpha1B adrenergic receptor at 1 uM by radioligand displacement assay
[41] = target: RAC-alpha serine/threonine-protein kinase (Homo sapiens) (UniProt P31749); experiment: Binding affinity to AKT1 at 1 uM by radioligand displacement assay
[42] = target: cAMP and cAMP-inhibited cGMP 3',5'-cyclic phosphodiesterase 10A (Homo sapiens) (UniProt Q9Y233); experiment: Binding affinity to PDE10A1 at 1 uM by radioligand displacement assay
[43] = target: Histamine H1 receptor (Homo sapiens) (UniProt P35367); experiment: Binding affinity to histamine receptor H1 at 1 uM by radioligand displacement assay
[44] = target: 5-hydroxytryptamine receptor 1A (Homo sapiens) (UniProt P08908); experiment: Binding affinity to 5HT1A receptor at 1 uM by radioligand displacement assay
[45] = target: T2, 5-hydroxytryptamine receptor 2B; experiment: Antagonist activity at human recombinant 5HT2B receptor expressed in HEK293 cells assessed as inhibition of alphamethyl5HT-induced intracellular calcium mobilization by Fluo4-based staining method; format: functional, cell-based
[46] = Binding affinity to PKC at 1 uM by radioligand displacement assay
[47] = Binding affinity to choline transporter at 1 uM by radioligand displacement assay
[48] = target: Acetylcholinesterase (Homo sapiens) (UniProt P22303); experiment: Binding affinity to AChE at 1 uM by radioligand displacement assay
[49] = Binding affinity to central-type GABA(A) receptor flunitrazepam binding site at 1 uM by radioligand displacement assay
[50] = target: Histamine H2 receptor (Homo sapiens) (UniProt P25021); experiment: Binding affinity to histamine receptor H2 at 1 uM by radioligand displacement assay
[51] = target: Alpha-1A adrenergic receptor (Homo sapiens) (UniProt P35348); experiment: Binding affinity to alpha1A adrenergic receptor at 1 uM by radioligand displacement assay
[52] = Binding affinity to L-type calcium channel benzothiazepine binding site at 1 uM by radioligand displacement assay
[53] = target: Muscarinic acetylcholine receptor M1 (Homo sapiens) (UniProt P11229); experiment: Binding affinity to M1 receptor at 1 uM by radioligand displacement assay
[54] = Binding affinity to glycine transporter at 1 uM by radioligand displacement assay
[55] = Binding affinity to GABA(A) receptor TBOP binding site at 1 uM by radioligand displacement assay
[56] = target: Muscarinic acetylcholine receptor M2 (Homo sapiens) (UniProt P08172); experiment: Binding affinity to M2 receptor at 1 uM by radioligand displacement assay
[57] = target: Histamine H3 receptor (Homo sapiens) (UniProt Q9Y5N1); experiment: Binding affinity to histamine receptor H3 at 1 uM by radioligand displacement assay
[58] = target: Nitric oxide synthase, inducible (Homo sapiens) (UniProt P35228); experiment: Binding affinity to iNOS at 1 uM by radioligand displacement assay
[59] = target: Sodium-dependent serotonin transporter (Homo sapiens) (UniProt P31645); experiment: Binding affinity to serotonin transporter at 1 uM by radioligand displacement assay
[60] = target: Sodium-dependent noradrenaline transporter (Homo sapiens) (UniProt P23975); experiment: Binding affinity to NET at 1 uM by radioligand displacement assay
[61] = Binding affinity to sodium channel site 2 at 1 uM by radioligand displacement assay
[62] = Binding affinity to PDE1 at 1 uM by radioligand displacement assay
[63] = Binding affinity to GABA-B receptor at 1 uM by radioligand displacement assay
[64] = Binding affinity to PDE4 at 1 uM by radioligand displacement assay
[65] = target: Amine oxidase [flavin-containing] B (Homo sapiens, UniProt P27338); experiment: Binding affinity to MAO-B at 1 uM by radioligand displacement assay
[66] = target: 5-hydroxytryptamine receptor 5A (Homo sapiens) (UniProt P47898); experiment: Binding affinity to 5HT5 receptor at 1 uM by radioligand displacement assay
[67] = target: 5-hydroxytryptamine receptor 1B (Homo sapiens) (UniProt P28222); experiment: Binding affinity to 5HT1B receptor at 1 uM by radioligand displacement assay
[68] = Binding affinity to peripheral benzodiazepine receptor at 1 uM by radioligand displacement assay
[69] = target: 5-hydroxytryptamine receptor 3A (Homo sapiens) (UniProt P46098); experiment: Binding affinity to 5HT3 receptor at 1 uM by radioligand displacement assay
[70] = target: 5-hydroxytryptamine receptor 4 (Homo sapiens) (UniProt Q13639); experiment: Binding affinity to 5HT4 receptor at 1 uM by radioligand displacement assay
[71] = target: T2, 5-hydroxytryptamine receptor 2B; experiment: Agonist activity at human recombinant 5HT2B receptor expressed in HEK293 cells assessed as increase in intracellular calcium mobilization by Fluo4-based staining method; format: functional, cell-based
[72] = target: Voltage-gated inwardly rectifying potassium channel KCNH2 (Homo sapiens, UniProt Q12809); experiment: Inhibition of human recombinant ERG channel expressed in […] cells after 3 to 8 mins by voltage clamp assay; format: cell-based

T2 sequence (P41595 whole entry): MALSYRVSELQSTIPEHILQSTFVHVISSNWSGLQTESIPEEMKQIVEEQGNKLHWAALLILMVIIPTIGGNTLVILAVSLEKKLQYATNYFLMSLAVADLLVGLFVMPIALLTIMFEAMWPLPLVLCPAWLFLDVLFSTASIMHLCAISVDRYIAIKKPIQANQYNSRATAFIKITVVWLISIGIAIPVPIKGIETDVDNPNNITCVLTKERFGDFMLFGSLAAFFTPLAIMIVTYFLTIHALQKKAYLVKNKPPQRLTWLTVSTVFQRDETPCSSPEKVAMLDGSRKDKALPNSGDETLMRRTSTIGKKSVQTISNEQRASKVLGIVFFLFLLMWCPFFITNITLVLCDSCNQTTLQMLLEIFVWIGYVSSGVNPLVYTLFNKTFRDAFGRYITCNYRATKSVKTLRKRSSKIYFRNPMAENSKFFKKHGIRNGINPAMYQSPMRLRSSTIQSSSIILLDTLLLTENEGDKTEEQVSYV
T1 sequence (P50406 whole entry): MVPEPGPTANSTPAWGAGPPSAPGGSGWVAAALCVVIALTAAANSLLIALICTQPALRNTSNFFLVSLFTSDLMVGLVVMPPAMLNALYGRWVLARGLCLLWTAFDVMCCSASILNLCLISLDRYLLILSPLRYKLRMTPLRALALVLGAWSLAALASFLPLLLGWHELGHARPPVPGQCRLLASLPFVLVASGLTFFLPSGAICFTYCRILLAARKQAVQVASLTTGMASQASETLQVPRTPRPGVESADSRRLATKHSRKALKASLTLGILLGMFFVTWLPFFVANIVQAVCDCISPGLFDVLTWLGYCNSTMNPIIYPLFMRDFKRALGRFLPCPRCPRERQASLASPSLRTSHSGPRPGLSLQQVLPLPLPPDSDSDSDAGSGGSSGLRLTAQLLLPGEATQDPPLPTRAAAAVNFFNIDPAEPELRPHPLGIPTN
Sequence of D(2) dopamine receptor (Homo sapiens) (P14416 whole entry): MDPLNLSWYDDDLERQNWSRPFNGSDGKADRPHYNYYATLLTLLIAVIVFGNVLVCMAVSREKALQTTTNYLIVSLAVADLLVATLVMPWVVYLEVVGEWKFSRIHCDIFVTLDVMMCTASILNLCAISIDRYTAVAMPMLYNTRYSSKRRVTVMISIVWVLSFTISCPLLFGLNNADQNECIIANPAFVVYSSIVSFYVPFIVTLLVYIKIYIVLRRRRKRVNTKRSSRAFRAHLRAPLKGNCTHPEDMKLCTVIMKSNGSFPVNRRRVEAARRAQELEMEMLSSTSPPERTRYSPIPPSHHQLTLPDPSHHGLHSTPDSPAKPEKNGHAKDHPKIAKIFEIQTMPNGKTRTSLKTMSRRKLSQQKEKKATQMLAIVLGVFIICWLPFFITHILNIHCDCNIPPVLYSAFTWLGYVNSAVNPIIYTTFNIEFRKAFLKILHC
Sequence of 5-hydroxytryptamine receptor 4 (Homo sapiens) (Q13639 whole entry): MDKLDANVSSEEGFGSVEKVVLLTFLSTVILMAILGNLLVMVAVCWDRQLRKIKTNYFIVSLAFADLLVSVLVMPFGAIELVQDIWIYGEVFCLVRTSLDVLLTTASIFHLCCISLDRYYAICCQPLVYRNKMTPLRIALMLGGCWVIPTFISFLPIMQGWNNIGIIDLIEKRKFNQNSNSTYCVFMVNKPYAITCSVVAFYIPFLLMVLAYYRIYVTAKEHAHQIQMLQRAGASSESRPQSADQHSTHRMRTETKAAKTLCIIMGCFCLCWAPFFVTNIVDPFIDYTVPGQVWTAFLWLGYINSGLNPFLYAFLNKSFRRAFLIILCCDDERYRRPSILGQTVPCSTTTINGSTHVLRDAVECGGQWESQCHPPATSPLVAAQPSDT
Sequence of Amine oxidase [flavin-containing] A (P21397 whole entry): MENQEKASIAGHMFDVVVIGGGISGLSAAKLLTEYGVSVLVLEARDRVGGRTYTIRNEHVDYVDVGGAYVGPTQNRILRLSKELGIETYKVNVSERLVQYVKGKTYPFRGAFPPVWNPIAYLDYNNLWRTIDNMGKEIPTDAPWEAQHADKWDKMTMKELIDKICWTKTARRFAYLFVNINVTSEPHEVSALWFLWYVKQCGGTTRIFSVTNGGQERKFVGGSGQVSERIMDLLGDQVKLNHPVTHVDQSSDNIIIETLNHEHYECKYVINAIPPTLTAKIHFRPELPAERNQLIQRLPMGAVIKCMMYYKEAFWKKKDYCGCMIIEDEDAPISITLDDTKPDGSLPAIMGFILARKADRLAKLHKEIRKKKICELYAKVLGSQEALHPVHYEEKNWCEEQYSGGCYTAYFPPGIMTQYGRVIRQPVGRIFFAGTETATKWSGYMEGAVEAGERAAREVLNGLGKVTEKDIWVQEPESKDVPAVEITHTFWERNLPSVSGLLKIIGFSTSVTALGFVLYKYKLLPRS
Sequence of Sodium-dependent serotonin transporter (Homo sapiens) (P31645 whole entry, looked up): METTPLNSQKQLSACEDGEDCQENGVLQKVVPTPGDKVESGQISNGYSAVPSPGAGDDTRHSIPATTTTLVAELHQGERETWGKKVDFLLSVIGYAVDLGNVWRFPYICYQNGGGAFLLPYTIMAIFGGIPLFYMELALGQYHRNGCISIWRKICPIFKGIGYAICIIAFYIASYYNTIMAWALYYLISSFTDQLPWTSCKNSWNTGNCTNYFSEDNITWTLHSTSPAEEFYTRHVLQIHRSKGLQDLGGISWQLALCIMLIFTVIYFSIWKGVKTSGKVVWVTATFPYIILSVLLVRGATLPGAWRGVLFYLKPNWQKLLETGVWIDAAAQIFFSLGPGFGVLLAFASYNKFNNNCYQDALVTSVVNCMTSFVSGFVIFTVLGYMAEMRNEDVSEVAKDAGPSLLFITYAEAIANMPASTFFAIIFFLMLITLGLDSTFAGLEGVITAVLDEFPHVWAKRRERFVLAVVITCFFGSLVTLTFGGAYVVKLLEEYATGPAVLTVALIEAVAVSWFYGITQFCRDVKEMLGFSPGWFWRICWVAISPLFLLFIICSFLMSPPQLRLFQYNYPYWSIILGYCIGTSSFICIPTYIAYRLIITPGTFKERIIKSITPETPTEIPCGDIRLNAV
Sequence of Adenosine receptor A1 (Homo sapiens) (P30542 whole entry): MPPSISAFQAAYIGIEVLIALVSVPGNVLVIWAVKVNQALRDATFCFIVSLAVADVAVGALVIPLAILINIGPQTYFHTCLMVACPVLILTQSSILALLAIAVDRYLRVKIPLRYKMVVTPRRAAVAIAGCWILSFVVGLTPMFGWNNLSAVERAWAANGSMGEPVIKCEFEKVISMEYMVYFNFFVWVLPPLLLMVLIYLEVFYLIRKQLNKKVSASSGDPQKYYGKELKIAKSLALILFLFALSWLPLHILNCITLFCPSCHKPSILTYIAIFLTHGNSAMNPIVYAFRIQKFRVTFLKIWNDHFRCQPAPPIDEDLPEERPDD
Sequence of 5-hydroxytryptamine receptor 2C (Homo sapiens) (P28335 whole entry): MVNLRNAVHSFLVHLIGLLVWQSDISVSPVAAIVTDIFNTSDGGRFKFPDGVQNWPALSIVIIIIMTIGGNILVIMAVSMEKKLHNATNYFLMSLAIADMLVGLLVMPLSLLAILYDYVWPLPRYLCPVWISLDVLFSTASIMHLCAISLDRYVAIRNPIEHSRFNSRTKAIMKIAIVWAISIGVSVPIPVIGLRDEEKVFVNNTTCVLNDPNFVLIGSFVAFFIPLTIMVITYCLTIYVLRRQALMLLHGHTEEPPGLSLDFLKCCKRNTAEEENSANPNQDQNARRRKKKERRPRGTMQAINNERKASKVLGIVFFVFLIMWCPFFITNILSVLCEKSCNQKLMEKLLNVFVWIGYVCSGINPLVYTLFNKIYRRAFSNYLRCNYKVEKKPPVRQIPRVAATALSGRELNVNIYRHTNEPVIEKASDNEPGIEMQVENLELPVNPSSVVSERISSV
Sequence of Sodium-dependent dopamine transporter (Homo sapiens) (Q01959 whole entry): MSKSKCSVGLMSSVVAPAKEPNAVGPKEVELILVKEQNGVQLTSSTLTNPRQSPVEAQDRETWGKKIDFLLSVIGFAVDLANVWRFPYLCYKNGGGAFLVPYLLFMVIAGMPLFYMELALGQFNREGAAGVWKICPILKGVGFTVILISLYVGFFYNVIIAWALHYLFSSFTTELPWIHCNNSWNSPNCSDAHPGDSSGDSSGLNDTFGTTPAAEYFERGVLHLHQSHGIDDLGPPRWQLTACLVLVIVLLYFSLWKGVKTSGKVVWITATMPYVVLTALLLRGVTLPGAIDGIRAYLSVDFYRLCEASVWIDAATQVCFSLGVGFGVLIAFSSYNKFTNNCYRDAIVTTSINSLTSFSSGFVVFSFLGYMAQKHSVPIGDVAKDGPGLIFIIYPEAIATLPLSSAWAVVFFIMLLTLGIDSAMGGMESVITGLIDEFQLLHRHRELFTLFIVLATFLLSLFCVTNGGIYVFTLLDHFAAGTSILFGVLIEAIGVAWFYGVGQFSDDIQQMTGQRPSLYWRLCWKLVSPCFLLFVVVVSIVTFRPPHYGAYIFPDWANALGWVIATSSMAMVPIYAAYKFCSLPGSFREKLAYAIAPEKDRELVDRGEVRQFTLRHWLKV
Sequence of Beta-2 adrenergic receptor (Homo sapiens) (P07550 whole entry, looked up): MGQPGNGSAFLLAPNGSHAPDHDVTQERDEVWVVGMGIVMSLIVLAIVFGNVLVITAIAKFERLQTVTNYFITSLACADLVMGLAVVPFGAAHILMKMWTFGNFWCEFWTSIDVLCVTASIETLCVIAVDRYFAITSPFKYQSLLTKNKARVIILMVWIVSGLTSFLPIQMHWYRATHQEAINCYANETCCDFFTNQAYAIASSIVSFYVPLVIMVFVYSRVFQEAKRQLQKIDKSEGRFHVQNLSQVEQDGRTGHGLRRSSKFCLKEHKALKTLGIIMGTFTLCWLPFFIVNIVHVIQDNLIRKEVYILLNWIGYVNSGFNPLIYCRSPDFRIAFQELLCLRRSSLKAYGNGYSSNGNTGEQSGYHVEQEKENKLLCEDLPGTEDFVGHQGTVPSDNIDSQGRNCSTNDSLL

CNc1nn2c3c(cnc2c1S(=O)(=O)c1ccccc1)CNCC3
0.0019 µM: Ki [1]

Cc1nn2c3c(cnc2c1S(=O)(=O)c1ccccc1)CN(C)CC3
0.0604 µM: Ki [2]

CNc1nn2cc3c(nc2c1S(=O)(=O)c1ccccc1)CCN(C)C3
0.00082 µM: Ki [2]
0.0143 µM: Ki [1]
Not Active: Activity [15] | IC50 ([45]; hek293) | Activity [65]
inactive: Activity [3] | Activity [4] | Activity [5] | Activity [6] | Activity [7] | Activity [8] | Activity [9] | Activity [10] | Activity [11] | Activity [12] | Activity [13] | Activity [14] | Activity [16] | Activity [17] | Activity [18] | Activity [19] | Activity [20] | Activity [21] | Activity [22] | Activity [23] | Activity [24] | Activity [25] | Activity [26] | Activity [27] | Activity [28] | Activity [29] | Activity [30] | Activity [31] | Activity [32] | Activity [33] | Activity [34] | Activity [35] | Activity [36] | Activity [37] | Activity [38] | Activity [39] | Activity [40] | Activity [41] | Activity [42] | Activity [43] | Activity [44] | Activity [46] | Activity [47] | Activity [48] | Activity [49] | Activity [50] | Activity [51] | Activity [52] | Activity [53] | Activity [54] | Activity [55] | Activity [56] | Activity [57] | Activity [58] | Activity [59] | Activity [60] | Activity [61] | Activity [62] | Activity [63] | Activity [64] | Activity [66] | Activity [67] | Activity [68] | Activity [69] | Activity [70]

CNc1nn2c3c(cnc2c1S(=O)(=O)c1ccccc1)CN(C)CC3
0.00039 µM: Ki [2]
0.0018 µM: Ki [1]
50%: Activity [23]
54.2 µM: IC50 [72]
active: inhibition [45] Dose-dependent effect
inactive: Activity [71]
6.16 µM: IC50 ([45]; read-out: IC50)

Cc1nn2cc3c(nc2c1S(=O)(=O)c1ccccc1)CCN(C)C3
> 10 µM: Ki [2]

CSc1nn2c3c(cnc2c1S(=O)(=O)c1ccccc1)CN(C)CC3
0.0148 µM: Ki [1]
0.0077 µM: Ki [2]

CSc1nn2cc3c(nc2c1S(=O)(=O)c1ccccc1)CCN(C)C3
0.492 µM: Ki [1]

CNc1nn2cc3c(nc2c1S(=O)(=O)c1ccccc1)CCNC3
0.0021 µM: Ki [1]

CSc1nn2cc3c(nc2c1S(=O)(=O)c1ccc(F)cc1)CCN(C)C3
1.16 µM: Ki [1]

CSc1nn2c3c(cnc2c1S(=O)(=O)c1ccc(F)cc1)CN(C)CC3
0.0357 µM: Ki [2]
